Consider 1 compound from US12673039B2, “Methods of inducing autophagy using coumarin derivatives and related compounds” (Buck Institute for Research on Aging, priority 2019, dated 2026).

Test [1] concerns UA44 worms. The experiment in a line: Dopaminergic neuronal loss in UA44 worms expressing human α-synuclein. The test is classed as in vivo, C. elegans.
Excerpt: Panel A) Dopaminergic neuronal loss in day-5 UA44 worms was quantified by scoring percentage of worms with intact 4-CEP neurons in AIC106 and DMSO-control treatment.
Test [2] has as its system worms expressing human Abeta and alpha-synuclein. The experiment in a line: Neurodegenerative C. elegans models expressing human Abeta and alpha-synuclein (Example 1). As to conditions: worms expressing human Abeta and alpha-synuclein (FIG. 11). The test is classed as in vivo. How it is done: FIGS. 11A-11D illustrate that coumarin 106 (“C1”, “AIC106”) is protective in a TFEB-dependent manner in C. elegans models that express human neurotoxic proteins. FIG. 11A) Transgenic worm strain expressing human alpha-synuclein under control of the dopamine-specific promoter grown on control or HLH-30 RNAi were exposed to 20 μM C1 versus DMSO-only controls on day-1 of adulthood. GFP+ cell counts were performed in young adults. Values represent number of animals displaying no DAergic cell loss; pooled results from 2 independent experiments. FIG. 11B) Transgenic worm strain expressing human alpha-synuclein under control of the muscle-specific promoter grown on control or HLH-30 RNAi were exposed to 20 μM C1 versus DMSO-only control on day-1 of adulthood followed by transfer to fresh plates every alternative day. Number of trashes per 30 sec were measured at day-6 and day-7 (n>60). *p<0.03, ***p<0.0008, ****p<0.0001. FIG. 11C) Transgenic worms expressing Abeta tagged with GFP within glutaminergic neurons grown on control or HLH-30 RNAi were exposed to 50 or 200 μM C1 versus DMSO-only controls on day-1 of adulthood. GFP+ cell counts were performed in young adults. Values represent % intact neurons. […] Number of trashes per 30 sec were measured at day-6 and day-7 (n>60). *p<0.03, ****p<0.0001. […]

For test [3], the system named is TFEB. The experiment in a line: qPCR of TFEB and downstream target genes in differentiated SY5Y cells. The format is cell-based, human. As to conditions: qPCR (FIG. 6). From the text:
Relative expression of TFEB and downstream target genes as assessed by qPCR from mRNA extracted from differentiated SY5Y cells treated with C1 (AIC106) versus vehicle-treated controls. Values represent fold induction versus controls, *p<0.01. Run in triplicate in 3 independent experiments.
In vitro drug screening studies. […] We utilized for these studies a 3000 compound natural product derivative library (Timtec, Newark, DE) in […] transfected with a sensitive TFEB promotor-Gaussian luciferase construct. […] C1 is a coumarin-related compound, part of a family of natural benzopyrones found in many edible plants.
A general note: Real-time PCR tracks product formation cycle by cycle.

In test [4] the test system is TFEB. Briefly: qRT-PCR of tfeb and its targets in N27 neuronal cells. The test is classed as cell-based, rat. How it is done: FIG. 18, panels A-F: AIC106 (Autophagy Inducing Coumarin-106) induces transcription of TFEB and its targets in vitro in rat N27 neuronal cells and in vivo in C. elegans. Panel A) Relative fold change in TFEB promoter activity compared to DMSO-control was determined by quantifying luciferase activity in supernatants collected from rat N27 neuronal cells post-24 hour treatment with C1 (AIC106), D1 and D2. [n=3 independent experiments (mean±SEM), **p<0.01, by one-way ANOVA with Dunnett's multiple comparisons test]. Panel B) Chemical structure of AIC106 and its structural derivative D1 and D2. Panel C) Relative fold change in mRNA of tfeb and its targets compared to DMSO-control were quantified using qRT-PCR in N27 neuronal cells post-24 hour treatment with AIC106 [N=3 independent experiments (mean±SD). *p<0.05, **p<0.01 and ****p<0.0001, by two-way ANOVA with Sidak's multiple comparisons test]. Panel D) Changes in HLH-30 expression were measured by quantifying GFP intensity in an individual GFP-tagged HLH-30 strain (MAH235) post-24 hours treatment with AIC106 and DMSO-control. […] Panel E) HLH-30; GFP (MAH235) were monitored by fluorescence microscopy. Panel F) Relative fold change in mRNA of hlh-30 and its targets compared to DMSO-control were quantified using qRT-PCR in young adult wild type N2 worms post-24 hours treatment with AIC106. […]

For `O=c1oc2c3c4c(cc2c2c1CCC2)CCCN4CCC3` [C1, 2,3,6,7,10,11-Hexahydro-1H,5H-cyclopenta(3,4)(1)benzopyrano(6,7,8-ij)quinolizin-12(9H)-one], in test [1] (strain expressing human α-synuclein within dopaminergic neurons), the neuronal loss entry was “prevented neuronal loss”. The neuroprotection entry in test [1] (worms treated with hlh-30 RNAi) is “failed to show any neuroprotection”. Further, the “protection in neurodegenerative C. elegans models” value in test [2] is on record as “protection in a TFEB-dependent manner”. In test [3], the TFEB expression entry is reported as “significant dose-dependent elevations in TFEB expression” and the “downstream TFEB target genes” value is “up-regulation of several downstream TFEB target genes”. Besides, the “TFEB mRNA levels” value in test [4] (24 hour treatment) is given as “increased TFEB mRNA levels”. Moreover, the “downstream TFEB target genes expression” value in test [4] (24 hour treatment (FIG. 18, panel C)) is “increased expression of downstream TFEB target genes”.
